# Assay results taken from ChEMBL document CHEMBL5608232, “Novel Glucagon-like Peptide 1 Receptor Agonists for Treating Type II Diabetes” (ACS Med Chem Lett, 2024).
# Target: Glucagon-like peptide 1 receptor (Homo sapiens, UniProt P43220)
# Test: Agonist activity at human GLP-1R expressed in HEK293 cells assessed as increase in intracellular cAMP level incubated for 30 mins by HTRF assay
# Type: functional, cell-based
# Sequence of Glucagon-like peptide 1 receptor (P43220 whole entry): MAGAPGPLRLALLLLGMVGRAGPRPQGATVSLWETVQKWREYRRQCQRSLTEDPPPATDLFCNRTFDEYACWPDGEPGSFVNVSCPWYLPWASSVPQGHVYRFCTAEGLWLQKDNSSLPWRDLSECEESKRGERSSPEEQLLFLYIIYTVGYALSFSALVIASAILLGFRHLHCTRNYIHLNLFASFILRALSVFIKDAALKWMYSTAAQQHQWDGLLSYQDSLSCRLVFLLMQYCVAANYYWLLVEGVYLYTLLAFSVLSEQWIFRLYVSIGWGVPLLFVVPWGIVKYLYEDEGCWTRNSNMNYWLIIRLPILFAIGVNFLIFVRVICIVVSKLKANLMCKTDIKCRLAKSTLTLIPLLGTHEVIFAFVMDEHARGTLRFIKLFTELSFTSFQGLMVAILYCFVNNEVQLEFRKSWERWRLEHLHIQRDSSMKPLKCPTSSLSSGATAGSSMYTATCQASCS
row,Structure (SMILES),EC50
1,COc1cc(C(=O)O)cc2c1nc(Cc1cc(F)c(-c3cccc(OCc4ccc(-n5cncn5)cc4)n3)cc1F)n2C[C@@H]1CCO1,402 pM
2,COCCOc1cc(C(=O)O)cc2c1nc(Cc1cc(F)c(-c3cccc(OCc4ccc(C#N)cc4F)n3)cc1F)n2C[C@@H]1CCO1,297 pM
3,COc1cc(C(=O)O)cc2c1nc(Cc1cc(F)c(-c3cccc(OCc4ccc(C#N)cc4C)n3)cc1F)n2C[C@@H]1CCO1,300 pM

# Next, values leading:
row,EC50,Structure (SMILES)
1,291 pM,COc1cc(C(=O)O)cc2c1nc(Cc1cc(C)c(-c3cccc(OCc4ccc(C#N)cc4F)n3)cc1F)n2C[C@@H]1CCO1
2,221 pM,COc1cc(C(=O)O)cc2c1nc(Cc1cc(F)c(-c3cccc(OCc4ccc(C#N)cc4F)n3)cc1F)n2C[C@@H]1CCO1
3,167 pM,COc1cc(C#N)ccc1COc1cccc(-c2cc(F)c(Cc3nc4c(OC)cc(C(=O)O)cc4n3C[C@@H]3CCO3)cc2F)n1
